Patent US8349826B2, “Oxazolidinone derivatives” (Actelion Pharmaceuticals Ltd., priority 2008, dated 2013)
Values after ≈ are worked out from the molar mass of the structure shown.

test system: Moraxella catarrhalis A894; experiment: MIC by broth microdilution (cation-adjusted Mueller-Hinton Broth, CLSI M7-A7); assay type: cell-based
Description: Minimal inhibitory concentrations (MICS; mg/l) were determined in cation-adjusted Mueller-Hinton Broth by a microdilution procedure following the description given in “Procedures for Dilution Antimicrobial Susceptibility Tests for Bacteria that Grow Aerobically”, Approved standard, 7th ed., Clinical and Laboratory Standards Institute (CLSI) Document M7-A7, Wayne, Pa., USA, 2006. All Example compounds were tested against several Gram positive and Gram negative bacteria such as S. aureus, E. faecalis, S. pneumoniae, M. catarrhalis, A. baumanii, E. coli or P. aeruginosa.

MIC	SMILES
≤ 0.031 µg/mL	COc1ccc2ccc(=O)n(CCC(=O)NC[C@@H]3CN(c4ccc5c(c4)NC(=O)CS5)C(=O)O3)c2c1 [Example 11, 3-(7-methoxy-2-oxo-2H-quinolin-1-yl)-N-[(R)-2-oxo-3-(3-oxo-3,4-dihydro-2H-benzo[1,4]thiazin-6-yl)-oxazolidin-5-ylmethyl]-propionamide]
≤ 0.031 µg/mL	O=C(CCn1c(=O)ccc2ccc(Br)cc21)NC[C@@H]1CN(c2ccc3c(c2)NC(=O)CS3)C(=O)O1 [Example 9, 3-(7-bromo-2-oxo-2H-quinolin-1-yl)-N-[(R)-2-oxo-3-(3-oxo-3,4-dihydro-2H-benzo[1,4]thiazin-6-yl)-oxazolidin-5-ylmethyl]-propionamide]
≤ 0.031 µg/mL	COc1ccc2ncc(=O)n(CCCNC[C@@H]3CN(c4ccc5c(c4)NC(=O)CO5)C(=O)O3)c2n1 [Example 19, 6-methoxy-4-(3-{[(R)-2-oxo-3-(3-oxo-3,4-dihydro-2H-benzo[1,4]oxazin-6-yl)-oxazolidin-5-ylmethyl]-amino}-propyl)-4H-pyrido[2,3-b]pyrazin-3-one]
≤ 0.031 µg/mL	COc1ccc2ccc(=O)n(C[C@@H](O)CNC[C@@H]3CN(c4cc5c(cc4F)SCC(=O)N5)C(=O)O3)c2c1 [Example 16, 7-fluoro-6-((R)-5-{[(S)-2-hydroxy-3-(7-methoxy-2-oxo-2H-quinolin-1-yl)-propylamino]-methyl}-2-oxo-oxazolidin-3-yl)-4H-benzo[1,4]thiazin-3-one]
≤ 0.031 µg/mL	COc1ccc2ncc(=O)n(C3CN(CC[C@@H]4CN(c5ccc6c(c5)NC(=O)CS6)C(=O)O4)C3)c2n1 [Example 22, 6-methoxy-4-(1-{2-[(R)-2-oxo-3-(3-oxo-3,4-dihydro-2H-benzo[1,4]thiazin-6-yl)-oxazolidin-5-yl]-ethyl}-azetidin-3-yl)-4H-pyrido[2,3-b]pyrazin-3-one]
≤ 0.031 µg/mL	COc1ccc2ccc(=O)n(CCCNC[C@@H]3CN(c4ccc5c(c4)NC(=O)CS5)C(=O)O3)c2c1 [Example 1, 6-((R)-5-{[3-(7-methoxy-2-oxo-2H-quinolin-1-yl)-propylamino]-methyl}-2-oxo-oxazolidin-3-yl)-4H-benzo[1,4]thiazin-3-one]
8 µg/mL (≈ 17.2 µM)	CCOc1ccc(N2C[C@@H](CCN3CC(n4c(=O)cnc5ccc(OC)nc54)C3)OC2=O)cc1 [Example 34, 4-(1-{2-[(R)-3-(4-ethoxy-phenyl)-2-oxo-oxazolidin-5-yl]-ethyl}-azetidin-3-yl)-6-methoxy-4H-pyrido[2,3-b]pyrazin-3-one]
≤ 0.016 µg/mL	COc1ccc2ncc(=O)n(C3CN(C[C@@H]4CN(c5ccc6c(c5)NC(=O)CS6)C(=O)O4)C3)c2n1 [Example 30, 6-methoxy-4-{1-[(R)-2-oxo-3-(3-oxo-3,4-dihydro-2H-benzo[1,4]thiazin-6-yl)-oxazolidin-5-ylmethyl]-azetidin-3-yl}-4H-pyrido[2,3-b]pyrazin-3-one]
≤ 0.031 µg/mL	COc1ccc2ccc(=O)n(C[C@H](O)CNC[C@@H]3CN(c4ccc5c(c4)NC(=O)CS5)C(=O)O3)c2c1.Cl [Example 14, 6-((R)-5-{[(R)-2-hydroxy-3-(7-methoxy-2-oxo-2H-quinolin-1-yl)-propylamino]-methyl}-2-oxo-oxazolidin-3-yl)-4H-benzo[1,4]thiazin-3-one hydrochloride]
≤ 0.031 µg/mL	COc1ccc2ncc(=O)n(C3CN(CC[C@H]4CN(c5ccc6c(c5)NC(=O)CS6)C(=O)O4)C3)c2n1 [Example 24, 6-methoxy-4-(1-{2-[(S)-2-oxo-3-(3-oxo-3,4-dihydro-2H-benzo[1,4]thiazin-6-yl)-oxazolidin-5-yl]-ethyl}-azetidin-3-yl)-4H-pyrido[2,3-b]pyrazin-3-one]
≤ 0.031 µg/mL	COc1ccc2ncc(=O)n(CCCNC[C@@H]3CN(c4ccc5c(c4)OCCO5)C(=O)O3)c2n1 [Example 18, 4-(3-{[(R)-3-(2,3-dihydro-benzo[1,4]dioxin-6-yl)-2-oxo-oxazolidin-5-ylmethyl]-amino}-propyl)-6-methoxy-4H-pyrido[2,3-b]pyrazin-3-one]
≤ 0.031 µg/mL	COc1ccc2ncc(=O)n(C3CN(CCC[C@@H]4CN(c5ccc6c(c5)NC(=O)CS6)C(=O)O4)C3)c2n1 [Example 23, 6-methoxy-4-(1-{3-[(R)-2-oxo-3-(3-oxo-3,4-dihydro-2H-benzo[1,4]thiazin-6-yl)-oxazolidin-5-yl]-propyl}-azetidin-3-yl)-4H-pyrido[2,3-b]pyrazin-3-one]
1 µg/mL (≈ 2.14 µM)	COc1ccc2c(c1)N(CCCNC[C@@H]1CN(c3ccc4c(c3)OCCO4)C(=O)O1)C(=O)CC2 [Example 28, 1-(3-{[(R)-3-(2,3-dihydro-benzo[1,4]dioxin-6-yl)-2-oxo-oxazolidin-5-ylmethyl]-amino}-propyl)-7-methoxy-3,4-dihydro-1H-quinolin-2-one]
